{"source": "paper PMC8180025", "about": "“Antibacterial, antifungal and antioxidant activities of whole plant chemical constituents of Rumex abyssinicus” (BMC Complementary Medicine and Therapies, 2021)", "key": {"[1]": {"system": "methicillin resistant S. aureus MRSA03", "assay": "Broth microdilution MIC/MMC"}, "[2]": {"system": "C. albicans", "assay": "Checkerboard combination with antibiotic (FIC)", "assay_type": "cell-based, Candida albicans", "conditions": "combined with fluconazole, checkerboard"}, "[3]": {"system": "S. flexneri", "assay": "Checkerboard combination with antibiotic (FIC)", "assay_type": "cell-based, Shigella flexneri", "conditions": "combined with ciprofloxacin", "procedure": "(§1) The inoculum was initially prepared as described above. The test microorganisms were inoculated into a 96-well microtitre plates and a serial dilution of two antimicrobial agents: antibiotic and MeOH extract, compound 2 or 4. Each well consisted of unique combination of test sample and antibiotic concentrations. The plates were then incubated for 24 h at 37 °C. The analyses were performed in triplicates. And the antimicrobial agents interactions were evaluated by calculating the fractional inhibitory concentration (FIC) indices. The FIC is defined as follows: MIC of antibiotic tested in combination/MIC of antibiotic tested alone + MIC of extract/compound tested in combination/MIC of extract/compound tested alone. The FIC index is interpreted as FIC ≤ 0.5: synergistic effect, 0.5 < FIC ≤1: additive effect, 1 < FIC ≤2: indifferent effect, and FIC > 2.0: antagonistic effect."}, "[4]": {"system": "methicillin sensitive S. aureus MSSA01", "assay": "Broth microdilution MIC/MMC"}, "[5]": {"system": "MRSA03", "assay": "Checkerboard combination with antibiotic (FIC)", "assay_type": "cell-based, Staphylococcus aureus", "conditions": "combined with ciprofloxacin"}, "[6]": {"system": "Staphylococcus aureus ATCC25923", "assay": "Broth microdilution MIC/MMC"}, "[7]": {"system": "Pseudomonas aeruginosa ATCC27853", "assay": "Broth microdilution MIC/MMC"}, "[8]": {"system": "S. aureus", "assay": "Checkerboard combination with antibiotic (FIC)", "assay_type": "cell-based, Staphylococcus aureus", "conditions": "combined with ciprofloxacin"}, "[9]": {"system": "Candida albicans ATCC10231", "assay": "Broth microdilution MIC/MMC"}, "[10]": {"system": "P. aeruginosa", "assay": "Checkerboard combination with antibiotic (FIC)", "assay_type": "cell-based, Pseudomonas aeruginosa", "conditions": "combined with ciprofloxacin"}, "[11]": {"system": "Cryptococcus neoformans H99", "assay": "Broth microdilution MIC/MMC"}, "[12]": {"assay": "Gallic acid equivalent antioxidant capacity (GEAC) assay", "assay_type": "biochemical", "conditions": "laccase/ABTS, 420 nm after 240 s; mean ± SD", "procedure": "The GEAC test was done as previously described with slight modifications. In a quartz cuvette, to 950 μL acetate buffer (pH =5.0, 100 mM), the following were added: 20 μL laccase (1 mM stock solution), 20 μL test sample, 10 μL ABTS (2,2′-azinobis(3-ethylbenzothiazoline-6-sulfonic acid) (74 mM stock solution). The purification of laccase from Sclerotinia sclerotiorum was done according to the protocol described. The sample concentrations in the assay mixture were 800, 400, 200, 100, 10 μg/mL for the extracts and 200, 100, 50, 25, 12.5, 6.25, 3.125, 1.56 μg/mL for the isolated compounds. The content of the generated ABTS^●+ radical was measured at 420 nm after 240 s reaction time and was converted to gallic acid equivalents by the use of a calibration curve (Pearson’s correlation coefficient: r = 0.997) constructed with 0, 4, 10, 14, 28, 56, 84 μM gallic acid standards rather than Trolox. Experiments were done in triplicate."}, "[13]": {"system": "MSSA01", "assay": "Checkerboard combination with antibiotic (FIC)", "assay_type": "cell-based, Staphylococcus aureus", "conditions": "combined with ciprofloxacin"}, "[14]": {"system": "Shigella flexneri SDINT", "assay": "Broth microdilution MIC/MMC"}, "[15]": {"system": "C. neoformans", "assay": "Checkerboard combination with antibiotic (FIC)", "assay_type": "cell-based, Cryptococcus neoformans", "conditions": "combined with fluconazole, checkerboard"}, "[16]": {"assay": "DPPH free radical scavenging assay", "assay_type": "biochemical", "conditions": "mean ± SD, triplicate", "procedure": "The free radical scavenging activity of extracts and compounds was evaluated according to described methods. The EC50 (μg/ml), which is the amount of sample necessary to inhibit by 50% the absorbance of free radical DPPH was calculated. Vitamin C was used as a standard control. All the analyses were carried out in triplicate."}, "[17]": {"system": "bacterial and yeast species", "assay": "Checkerboard combination with antibiotics, whole panel", "assay_type": "cell-based", "conditions": "overall statement over the microorganisms tested", "procedure": "as §1"}}, "note": "Where “and” joins values, the source holds several entries; their conditions need not be identical. Identical values can stand only once. Marks after values point to notes of the source that are not given here.", "data": [{"smiles": "Cc1cc(O)c2c(c1)C(=O)c1cc(O)cc(O)c1C2=O", "note": "[Compound 4, Emodin]", "values": [{"measurement": "MMC/MIC", "setting": "[1]; MRSA03", "value": 1}, {"measurement": "MMC", "setting": "[1]; MRSA03, sub-culturing after broth microdilution", "value": 32, "unit": "µg/mL"}, {"measurement": "MIC", "setting": "[1]; Staphylococcus aureus", "value": 32, "unit": "µg/mL"}, {"measurement": "FIC (fractional inhibitory concentration index)", "setting": "[2]", "value": 0.75}, {"measurement": "FICEx / FIC2 / FIC5 (MIC of extract/compound tested in combination/MIC of extract/compound tested alone)", "setting": "[2]", "value": 0.5}, {"measurement": "FICA (MIC of antibiotic tested in combination/MIC of antibiotic tested alone)", "setting": "[2]; 24 h at 37 °C", "value": 0.25}, {"measurement": "Interpretation (of FIC index)", "setting": "[3]", "value": "Synergistic (FIC ≤ 0.5: synergistic effect)"}, {"measurement": "FIC (fractional inhibitory concentration index)", "setting": "[3]; checkerboard", "value": 0.31}, {"measurement": "FICEx / FIC2 / FIC5 (MIC of extract/compound tested in combination/MIC of extract/compound tested alone)", "setting": "[3]; checkerboard", "value": 0.25}, {"measurement": "FICA (MIC of antibiotic tested in combination/MIC of antibiotic tested alone)", "setting": "[3]; checkerboard, 24 h at 37 °C", "value": 0.0625}, {"measurement": "MMC/MIC", "setting": "[4]; MSSA01", "value": 1}, {"measurement": "MMC", "setting": "[4]; MSSA01, sub-culturing after broth microdilution", "value": 32, "unit": "µg/mL"}, {"measurement": "MIC", "setting": "[4]; Staphylococcus aureus", "value": 32, "unit": "µg/mL"}, {"measurement": "FIC (fractional inhibitory concentration index)", "setting": "[5]", "value": 0.375}, {"measurement": "FICEx / FIC2 / FIC5 (MIC of extract/compound tested in combination/MIC of extract/compound tested alone)", "setting": "[5]", "value": 0.125}, {"measurement": "FICA (MIC of antibiotic tested in combination/MIC of antibiotic tested alone)", "setting": "[5]; 24 h at 37 °C", "value": 0.25}, {"measurement": "MMC/MIC", "setting": "[6]; S. aureus", "value": 1}, {"measurement": "MMC", "setting": "[6]; S. aureus, sub-culturing after broth microdilution", "value": 8, "unit": "µg/mL"}, {"measurement": "MIC", "setting": "[6]; Staphylococcus aureus, ATCC25923", "value": 8, "unit": "µg/mL"}, {"measurement": "MMC/MIC", "setting": "[7]; P. aeruginosa", "value": 1}, {"measurement": "MMC", "setting": "[7]; P. aeruginosa, sub-culturing after broth microdilution", "value": 16, "unit": "µg/mL"}, {"measurement": "MIC", "setting": "[7]; Pseudomonas aeruginosa, ATCC27853", "value": 16, "unit": "µg/mL"}, {"measurement": "Interpretation (of FIC index)", "setting": "[8]", "value": "Additive (0.5 < FIC ≤1: additive effect)"}, {"measurement": "FIC (fractional inhibitory concentration index)", "setting": "[8]; checkerboard", "value": 0.625}, {"measurement": "FICEx / FIC2 / FIC5 (MIC of extract/compound tested in combination/MIC of extract/compound tested alone)", "setting": "[8]; checkerboard", "value": 0.125}, {"measurement": "FICA (MIC of antibiotic tested in combination/MIC of antibiotic tested alone)", "setting": "[8]; checkerboard, 24 h at 37 °C", "value": 0.5}, {"measurement": "MMC/MIC", "setting": "[9]; C. albicans", "value": 1}, {"measurement": "MMC", "setting": "[9]; C. albicans, sub-culturing after broth microdilution", "value": 8, "unit": "µg/mL"}, {"measurement": "MIC", "setting": "[9]; Candida albicans, ATCC10231", "value": 8, "unit": "µg/mL"}, {"measurement": "Interpretation (of FIC index)", "setting": "[10]", "value": "Synergistic (FIC ≤ 0.5: synergistic effect)"}, {"measurement": "FICEx / FIC2 / FIC5 (MIC of extract/compound tested in combination/MIC of extract/compound tested alone)", "setting": "[10]; checkerboard", "value": 0.125}, {"measurement": "MMC/MIC", "setting": "[11]; C. neoformans", "value": 1}, {"measurement": "MMC", "setting": "[11]; C. neoformans, sub-culturing after broth microdilution", "value": 8, "unit": "µg/mL"}, {"measurement": "MIC", "setting": "[11]; Cryptococcus neoformans, H99", "value": 8, "unit": "µg/mL"}, {"measurement": "Gallic acid equivalent antioxidant capacity (GEAC)", "setting": "[12]", "value": "79.54 ± 1.26 μg/mL and 79.54 ± 1.26^e μg/mL"}, {"measurement": "FIC (fractional inhibitory concentration index)", "setting": "[13]", "value": 0.5}, {"measurement": "FICEx / FIC2 / FIC5 (MIC of extract/compound tested in combination/MIC of extract/compound tested alone)", "setting": "[13]", "value": 0.25}, {"measurement": "FICA (MIC of antibiotic tested in combination/MIC of antibiotic tested alone)", "setting": "[13]; 24 h at 37 °C", "value": 0.25}, {"measurement": "MMC/MIC", "setting": "[14]; S. flexneri", "value": 2}, {"measurement": "MMC", "setting": "[14]; S. flexneri, sub-culturing after broth microdilution", "value": 16, "unit": "µg/mL"}, {"measurement": "MIC", "setting": "[14]; Shigella flexneri", "value": 8, "unit": "µg/mL"}, {"measurement": "FIC (fractional inhibitory concentration index)", "setting": "[15]", "value": 0.75}, {"measurement": "FICEx / FIC2 / FIC5 (MIC of extract/compound tested in combination/MIC of extract/compound tested alone)", "setting": "[15]", "value": 0.5}, {"measurement": "FICA (MIC of antibiotic tested in combination/MIC of antibiotic tested alone)", "setting": "[15]; 24 h at 37 °C", "value": 0.25}, {"measurement": "DPPH free radical scavenging activity (EC50)", "setting": "[16]", "value": "10.69 ± 0.51^f μg/mL"}, {"measurement": "effect of the association with ciprofloxacin (bacteria) / fluconazole (yeasts)", "setting": "[17]", "value": "synergistic"}]}]}
